Laboratory results from ChEMBL document CHEMBL4261605, “Discovery of a novel series of pyridine and pyrimidine carboxamides as potent and selective covalent inhibitors of Btk” (Bioorg Med Chem Lett, 2018).

Legend:
[1] = molecular target: T1, Tyrosine-protein kinase BTK (Homo sapiens, UniProt Q06187); assay: Inhibition of recombinant human full length N-terminal GST-tagged BTK (2 to 659 residues) expressed in baculovirus expression system using FITC-AHA-EEPLYWSFPAKKK-NH2 substrate measured after 90 mins by off-chip mobility shift assay
T1 sequence (Q06187 whole entry, the tested form may be a part): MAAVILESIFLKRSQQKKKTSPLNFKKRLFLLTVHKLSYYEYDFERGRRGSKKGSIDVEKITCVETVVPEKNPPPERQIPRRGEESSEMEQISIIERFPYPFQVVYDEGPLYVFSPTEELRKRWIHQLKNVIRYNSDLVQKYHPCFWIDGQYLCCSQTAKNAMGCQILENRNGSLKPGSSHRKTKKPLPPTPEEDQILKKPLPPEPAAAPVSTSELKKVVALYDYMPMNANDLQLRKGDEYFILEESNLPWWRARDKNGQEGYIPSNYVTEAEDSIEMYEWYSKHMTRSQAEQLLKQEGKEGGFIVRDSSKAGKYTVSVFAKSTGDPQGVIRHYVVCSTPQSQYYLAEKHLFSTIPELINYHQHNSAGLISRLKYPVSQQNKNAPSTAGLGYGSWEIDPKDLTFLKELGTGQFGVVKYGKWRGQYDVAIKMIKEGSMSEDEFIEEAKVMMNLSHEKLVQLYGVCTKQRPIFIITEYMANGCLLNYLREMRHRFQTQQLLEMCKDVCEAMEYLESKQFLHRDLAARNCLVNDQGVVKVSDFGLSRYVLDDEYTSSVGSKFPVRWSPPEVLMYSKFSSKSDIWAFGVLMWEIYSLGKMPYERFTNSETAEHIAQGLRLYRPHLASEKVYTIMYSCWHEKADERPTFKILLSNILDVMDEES

[2] = molecular target: T1, Tyrosine-protein kinase BTK; assay: Inhibition of BTK in goat anti-human IgM F(ab')2-stimulated human PBMC assessed as suppression of BCR-induced CD69 expression on B cells pretreated for 1 hr followed by blood stimulation measured after overnight incubation by flow cytometry; format: cell-based
[3] = Efflux ratio of permeability in human Caco2 cells; details: Caco-2
[4] = Permeability across apical to basolateral side in human Caco2 cells; details: Caco-2
[5] = molecular target: T1, Tyrosine-protein kinase BTK; assay: Inhibition of recombinant human full length N-terminal GST-tagged BTK (2 to 659 residues) expressed in baculovirus expression system at 100 uM using FITC-AHA-EEPLYWSFPAKKK-NH2 substrate measured after 90 mins by off-chip mobility shift assay relative to control
[6] = AUC in mouse at 0.5 mg/kg, po; format: ADME, organism-based; details: in vivo
Cytochrome P450 2C9 = Cytochrome P450 2C9 (Homo sapiens, UniProt P11712); assay: Inhibition of CYP2C9 (unknown origin); format: ADME
Cytochrome P450 2C9, sequence (P11712 whole entry): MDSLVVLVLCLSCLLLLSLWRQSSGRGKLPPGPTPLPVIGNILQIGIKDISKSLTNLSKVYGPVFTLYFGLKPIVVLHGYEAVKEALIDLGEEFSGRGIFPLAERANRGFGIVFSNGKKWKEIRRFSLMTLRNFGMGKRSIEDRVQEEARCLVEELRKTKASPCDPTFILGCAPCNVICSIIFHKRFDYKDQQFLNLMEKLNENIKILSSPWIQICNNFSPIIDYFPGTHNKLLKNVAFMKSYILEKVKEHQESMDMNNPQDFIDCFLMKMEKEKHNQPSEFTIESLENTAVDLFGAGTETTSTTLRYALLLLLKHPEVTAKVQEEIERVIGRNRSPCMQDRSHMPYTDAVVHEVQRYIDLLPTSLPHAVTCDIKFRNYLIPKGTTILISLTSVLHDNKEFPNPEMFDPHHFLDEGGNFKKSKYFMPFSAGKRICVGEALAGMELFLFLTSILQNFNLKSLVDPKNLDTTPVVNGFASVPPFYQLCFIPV

[7] = Half life in mouse at 0.5 mg/kg, po; format: ADME, organism-based; details: in vivo
Cytochrome P450 2C19 = Cytochrome P450 2C19 (Homo sapiens, UniProt P33261); assay: Inhibition of CYP2C19 (unknown origin); format: ADME
Cytochrome P450 2C19, sequence (P33261 whole entry): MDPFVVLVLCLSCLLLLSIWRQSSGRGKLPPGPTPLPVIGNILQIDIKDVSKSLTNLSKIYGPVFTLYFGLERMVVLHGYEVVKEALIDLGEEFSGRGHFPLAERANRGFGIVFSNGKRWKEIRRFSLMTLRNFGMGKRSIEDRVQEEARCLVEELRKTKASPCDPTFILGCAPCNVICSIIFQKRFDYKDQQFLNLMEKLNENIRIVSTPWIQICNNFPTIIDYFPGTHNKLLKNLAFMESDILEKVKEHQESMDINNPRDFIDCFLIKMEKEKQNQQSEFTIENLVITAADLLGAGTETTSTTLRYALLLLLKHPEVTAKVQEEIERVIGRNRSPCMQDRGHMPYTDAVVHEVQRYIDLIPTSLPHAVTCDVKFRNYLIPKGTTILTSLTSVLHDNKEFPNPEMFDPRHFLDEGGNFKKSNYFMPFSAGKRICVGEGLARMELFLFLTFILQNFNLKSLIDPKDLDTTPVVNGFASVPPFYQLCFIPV

Cytochrome P450 3A4 = Cytochrome P450 3A4 (Homo sapiens, UniProt P08684); assay: Inhibition of CYP3A4 (unknown origin); format: ADME
Cytochrome P450 3A4, sequence (P08684 whole entry): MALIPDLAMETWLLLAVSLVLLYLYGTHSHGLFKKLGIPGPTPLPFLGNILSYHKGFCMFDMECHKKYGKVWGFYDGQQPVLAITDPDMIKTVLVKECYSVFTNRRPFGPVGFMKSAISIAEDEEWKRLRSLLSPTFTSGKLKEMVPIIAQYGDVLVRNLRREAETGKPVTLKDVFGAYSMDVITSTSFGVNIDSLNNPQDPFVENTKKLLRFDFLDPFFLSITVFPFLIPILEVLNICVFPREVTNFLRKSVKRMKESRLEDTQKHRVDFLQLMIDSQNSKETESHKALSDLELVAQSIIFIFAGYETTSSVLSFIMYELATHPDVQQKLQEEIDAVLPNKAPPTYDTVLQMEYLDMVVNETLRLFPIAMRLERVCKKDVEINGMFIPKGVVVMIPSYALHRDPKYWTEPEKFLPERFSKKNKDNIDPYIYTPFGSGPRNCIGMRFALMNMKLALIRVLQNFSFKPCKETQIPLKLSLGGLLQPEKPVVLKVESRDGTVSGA

Cytochrome P450 2B6 = molecular target: T2, Cytochrome P450 2B6 (Homo sapiens, UniProt P20813); assay: Inhibition of CYP2B6 (unknown origin); format: ADME
T2 sequence (P20813 whole entry): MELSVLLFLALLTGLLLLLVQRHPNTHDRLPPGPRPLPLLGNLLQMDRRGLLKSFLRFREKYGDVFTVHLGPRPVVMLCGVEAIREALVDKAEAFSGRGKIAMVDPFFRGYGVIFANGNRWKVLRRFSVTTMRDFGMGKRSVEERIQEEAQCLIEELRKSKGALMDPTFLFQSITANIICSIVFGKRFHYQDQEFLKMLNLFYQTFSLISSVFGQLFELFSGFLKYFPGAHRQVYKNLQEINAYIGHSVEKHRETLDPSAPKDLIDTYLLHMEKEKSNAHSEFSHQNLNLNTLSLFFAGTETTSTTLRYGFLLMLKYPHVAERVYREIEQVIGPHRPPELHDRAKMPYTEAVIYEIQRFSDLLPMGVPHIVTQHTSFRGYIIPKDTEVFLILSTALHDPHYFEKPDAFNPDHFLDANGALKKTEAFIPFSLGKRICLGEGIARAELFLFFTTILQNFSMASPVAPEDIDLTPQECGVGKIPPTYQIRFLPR

Cytochrome P450 2C8 = molecular target: T3, Cytochrome P450 2C8 (Homo sapiens, UniProt P10632); assay: Inhibition of CYP2C8 (unknown origin); format: ADME
T3 sequence (P10632 whole entry): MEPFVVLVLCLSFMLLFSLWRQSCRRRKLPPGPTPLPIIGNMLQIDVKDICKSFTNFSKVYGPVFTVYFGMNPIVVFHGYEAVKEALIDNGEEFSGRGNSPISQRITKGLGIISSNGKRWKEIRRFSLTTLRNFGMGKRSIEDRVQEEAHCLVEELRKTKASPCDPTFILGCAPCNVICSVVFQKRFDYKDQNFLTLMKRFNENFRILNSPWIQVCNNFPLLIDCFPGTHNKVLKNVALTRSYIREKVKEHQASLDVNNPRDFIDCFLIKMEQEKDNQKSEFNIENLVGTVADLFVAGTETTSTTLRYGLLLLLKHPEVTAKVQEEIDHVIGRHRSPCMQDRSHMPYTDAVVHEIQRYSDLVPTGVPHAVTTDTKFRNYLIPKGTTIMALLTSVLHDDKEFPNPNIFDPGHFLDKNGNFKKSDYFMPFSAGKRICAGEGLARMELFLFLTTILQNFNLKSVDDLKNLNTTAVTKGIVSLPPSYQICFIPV

Row | SMILES | IC50 [1] | IC50 [2] | other results
1 | C=CC(=O)N[C@H]1CCN(c2ccc(C(N)=O)c(Nc3ccc(C(=O)N4CCOCC4)cc3)n2)C1 | 1.5 nM | – | –
2 | NC(=O)c1ccc(N2CC[C@H](N)C2)nc1Nc1ccc(C(=O)N2CCOCC2)cc1 | 1600 nM | – | –
3 | C=CC(=O)N[C@H]1CCN(c2ccc(C(N)=O)c(Nc3ccc(N4C[C@@H](C)O[C@@H](C)C4)cc3)n2)C1 | 0.6 nM | 6.1 nM | –
4 | C=CC(=O)N(C)[C@H]1CCN(c2ccc(C(N)=O)c(Nc3ccc(CCN4CCCC4)cc3)n2)C1 | 1.3 nM | 41 nM | efflux ratio [3]: 266; Papp A→B [4]: 0.07 ×10⁻⁶ cm/s
5 | C=CC(=O)N[C@H]1CCCN(c2ccc(C(N)=O)c(Nc3ccc(C(=O)N4CCOCC4)cc3)n2)C1 | 16 nM | – | –
6 | NC(=O)c1ccc(NC2CCCCC2)nc1 | > 6000 nM | – | inhibition [5]: 71%
7 | C=CC(=O)N1C[C@H]2C[C@@H]1CN2c1ccc(C(N)=O)c(Nc2ccc(C)nc2)n1 | 0.1 nM | 1.4 nM | –
8 | C=CC(=O)N[C@H]1CCN(c2ccc(C(N)=O)c(Nc3ccc(Oc4ccccc4)cc3)n2)C1 | 11 nM | – | –
9 | C=CC(=O)N[C@H]1CCN(c2ncc(C(N)=O)c(Nc3ccc(C(=O)N4CC(C)OC(C)C4)cc3)n2)C1 (some centres undefined) | 1.1 nM | 44 nM | –
10 | C=CC(=O)N[C@@H]1CN(c2ccc(C(N)=O)c(Nc3ccc(CCN4CCCC4)cc3)n2)CC12CC2 | 0.09 nM | 4.9 nM | efflux ratio [3]: 822; Papp A→B [4]: 0.02 ×10⁻⁶ cm/s
11 | C=CC(=O)N1CCC[C@@H](n2nc(-c3ccc(Oc4ccccc4)cc3)c3c(N)ncnc32)C1 [IBRUTINIB] | – | – | AUC [6]: 26 ng·h/mL; INH (Cytochrome P450 2C9): 8.5 µM; half-life [7]: 30 min; INH (Cytochrome P450 2C19): 19 µM; INH (Cytochrome P450 3A4): 11 µM; INH (Cytochrome P450 2B6): 11.1 µM; INH (Cytochrome P450 2C8): 7.9 µM
12 | C=CC(=O)N[C@H]1CCN(c2ncc(C(N)=O)c(N)n2)C1 | 180 nM | – | –
13 | C=CC(=O)N[C@H]1CCN(c2ncc(C(N)=O)c(Nc3ccc(F)cc3)n2)C1 | 8 nM | – | –
14 | C=CC(=O)N[C@H]1CCN(c2ccc(C(N)=O)c(NC3CCCCC3)n2)C1 | > 6000 nM | – | –
15 | C=CC(=O)N[C@H]1CCN(c2ccc(C(N)=O)c(Nc3ccc(CCN4CCCC4)cc3)n2)C1 | 1.9 nM | 7 nM | –
16 | C=CC(=O)N[C@H]1CCN(c2ncc(C(N)=O)c(Nc3ccc(C(=O)N4CCOCC4)cc3)n2)C1 | 0.5 nM | – | –
17 | C=CC(=O)N[C@H]1CCN(c2nc(Nc3ccc(N4C[C@@H](C)O[C@@H](C)C4)cc3)c(C(N)=O)cc2F)C1 | 1.6 nM | 14 nM | –
18 | C=CC(=O)N[C@@H]1CCN(c2ccc(C(N)=O)c(Nc3ccc(C(=O)N4CCOCC4)cc3)n2)C1 | 16.2 nM | – | –
19 | C=CC(=O)N1CCN(c2ccc(C(N)=O)c(Nc3ccc(CCN4CCCC4)cc3)n2)CC1 | 0.3 nM | 4.3 nM | –
20 | C=CC(=O)N[C@@H]1CCN(c2ncc(C(N)=O)c(N)n2)C1 | 500 nM | – | –
